PMC10221159, “Investigation of N-Acetyltransferase 2-Mediated Drug Interactions of Amifampridine: In Vitro and In Vivo Evidence of Drug Interactions with Acetaminophen” (Pharmaceutics, 2023)
Read-outs that look alike come from different tables or passages of the source. Each block holds one compound with its values, some of them ahead of it.

How the values were obtained:
[1] = Tissue distribution of amifampridine and 3-N-acetylamifampridine in rats; assay type: in vivo, rat; details: rat, 60 min after oral amifampridine 2 mg/kg
Experimental: To investigate the effects of acetaminophen on the tissue distribution of amifampridine and 3-N-acetylamifampridine, rats were sacrificed at 60 min after administration of amifampridine in control and acetaminophen-treated rats (n = 6) as mentioned above, and the tissues, including liver, kidney, heart, lungs, spleen, brain, and muscle tissues, were obtained. Tissue samples were homogenized using a Wheaton^TM Dounce tissue grinder (Wheaton Millipore, Billerica, MA, USA) after adding a three-fold volume of PBS. An amount of 100 μL of tissue homogenates was transferred to the tube and 200 μL of IS solution was then added and vortexed followed by centrifugation at 14,000 rpm for 15 min at 4 °C. The supernatants were transferred to LC vials for quantification. For muscle samples, the supernatant was concentrated using a desiccator and reconstituted with the mobile phase solvent.

[2] = In vivo pharmacokinetic interaction study in rats (plasma); set-up: species or system rat; details: for AUC(0-inf) / AUC(0-t) / Cmax / MRT / Tmax / half-life / CL renal: male, Sprague-Dawley, rat, po, 2 mg/kg, oral amifampridine 2 mg/kg; for AUC(0-inf) / AUC(0-t) / Cmax / MRT / Tmax / half-life: plasma; for CL renal: urine and plasma, renal clearance
Experimental: Male Sprague Dawley (SD) rats (7–8 weeks old, 260–330 g) were purchased from Orient Bio, Inc. (Seongnam, Korea). The rats were housed under a light/dark cycle for 12 h and were left for at least a week before the experiment to adapt to the laboratory environment. Water and food were provided ad libitum. The rats were fasted overnight with free access to water prior to pharmacokinetic studies. The protocols for animal experiments were approved in accordance with the Guidelines for Animal Care and Use of Gachon University (approval no.: GIACUC-R2021006; 13 May 2021).
The rats were anesthetized with a mixture of Rompun and Zoletil by intramuscular injection and received an intraperitoneal injection of vehicle (40:60 PEG400:normal saline; n = 8) or 100 mg/kg acetaminophen (n = 8). After 10 min, 2 mg/kg amifampridine (dissolved in saline) was administered orally. Blood samples were collected at 0, 5, 15, 30, 60, 90, 120, 240, and 360 min and centrifuged at 14,000 rpm for 15 min at 4 °C. For analysis of amifampridine and 3-N-acetylamifampridine, 50 μL of plasma samples was mixed with 100 μL IS solution (5 ng/mL ondansetron in acetonitrile) and the mixture was vortexed followed by centrifugation at 14,000 rpm for 15 min at 4 °C. For the analysis of acetaminophen, 200 μL of IS (tolbutamide 200 ng/mL in methanol) was added to the plasma samples which were diluted 10-fold using the blank plasma and then vortexed for one minute. Further, the samples were centrifuged at 14,000 rpm for 15 min at 4 °C. The supernatants were transferred to LC vials for quantification.
Non-compartment analysis (NCA) was performed to calculate the pharmacokinetic parameters for the in vivo study using WinNonlin (Version 8.3. (Pharsight Corporation, Mountain View, CA, USA)). The area under the plasma concentration–time curve from time 0 to infinity (AUCinf) was calculated by the linear trapezoidal method and standard extrapolation using λ, where λ represents the slope of the terminal phase in a semi-log graph for plasma concentration–time profiles. Renal clearance (CLr) was determined by dividing the accumulated amount of drug excreted in the urine by AUCinf.

[3] = set-up: method as in earlier work; details: metabolite of amifampridine; cited from earlier work
[4] = Urinary excretion of amifampridine and 3-N-acetylamifampridine in rats; assay type: in vivo, rat; details: for amount excreted into the urine for up to 4 h: oral amifampridine 2 mg/kg
Experimental: Urine samples were collected at intervals of 0–4, 4–8, and 8–24 h after the administration of amifampridine to control and acetaminophen-treated rats (n = 6), as described above, and were diluted 500-fold with potassium phosphate buffer. An amount of 200 μL of IS was then added to the samples and vortexed for a minute. After centrifugation at 14,000 rpm for 15 min at 4 °C, the supernatant was transferred into vials for quantification of amifampridine and 3-N-acetylamifampridine.

[5] = humans, cited from earlier work
[6] = system: NAT2; details: previous report; cited from earlier work
[7] = target: T1, NAT2 (Homo sapiens, UniProt P11245); assay: Inhibition of amifampridine acetylation to 3-N-acetylamifampridine by NAT2 inhibitors, human liver S9 fraction; assay type: biochemical; details: amifampridine 50 μM, 15 min
T1 construct: in vitro using S9 fractions obtained from human, rat, and mouse livers; from tissue; host or cells: human liver S9 fraction
T1 sequence (P11245 1-290): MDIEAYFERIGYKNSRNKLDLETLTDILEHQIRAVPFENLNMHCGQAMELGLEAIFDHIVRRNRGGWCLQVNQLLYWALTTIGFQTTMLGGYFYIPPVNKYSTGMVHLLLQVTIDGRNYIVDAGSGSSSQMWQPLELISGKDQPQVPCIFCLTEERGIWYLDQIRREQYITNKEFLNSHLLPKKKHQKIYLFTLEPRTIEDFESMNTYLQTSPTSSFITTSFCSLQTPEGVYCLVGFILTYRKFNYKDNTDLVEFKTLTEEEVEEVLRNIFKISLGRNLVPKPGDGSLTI
Experimental: Then, the NAT2 inhibitors (final concentrations of 0, 1, 5, 10, 50, 100, 500, 1000, and 5000 μM) and amifampridine (final concentration of 50 μM) were added to the reaction mixture and incubated for 15 min at 37 °C. An amount of 50 μL of the mixture was then transferred into the tube and mixed with 100 μL of IS (5 ng/mL ondansetron in acetonitrile). The mixture was vortexed and centrifuged at 14,000 rpm for 15 min at 4 °C. The supernatant was transferred into vials for HPLC-MS/MS analysis and the concentration of 3-N-acetylamifampridine was determined.

[8] = acetaminophen-treated group (100 mg/kg ip)

Kp at 1 h ([1]; Sprague Dawley, brain, acetaminophen 100 mg/kg, read-out: Tissue partition coefficient (Kp), Brain): 0.2 ± 0.2
Kp at 1 h ([1]; Sprague Dawley, brain, control, read-out: Tissue partition coefficient (Kp), Brain): 0.2 ± 0.2
Kp at 1 h ([1]; Sprague Dawley, heart, acetaminophen 100 mg/kg, read-out: Tissue partition coefficient (Kp), Heart): 1.6 ± 0.4
Kp at 1 h ([1]; Sprague Dawley, heart, control, read-out: Tissue partition coefficient (Kp), Heart): 1.8 ± 0.5
Kp at 1 h ([1]; Sprague Dawley, lungs, acetaminophen 100 mg/kg, read-out: Tissue partition coefficient (Kp), Lungs): 2.7 ± 0.9
Kp at 1 h ([1]; Sprague Dawley, lungs, control, read-out: Tissue partition coefficient (Kp), Lungs): 2.9 ± 0.5
Kp at 1 h ([1]; Sprague Dawley, spleen, acetaminophen 100 mg/kg, read-out: Tissue partition coefficient (Kp), Spleen): 3 ± 0.9
Kp at 1 h ([1]; Sprague Dawley, spleen, control, read-out: Tissue partition coefficient (Kp), Spleen): 3.3 ± 0.7
Kp at 1 h ([1]; male, Sprague-Dawley, kidney, acetaminophen 100 mg/kg, read-out: Tissue partition coefficient (Kp), Kidney): 5.1 ± 1.6
Kp at 1 h ([1]; male, Sprague-Dawley, kidney, control, read-out: Tissue partition coefficient (Kp), Kidney): 16.6 ± 12.4
Kp at 1 h ([1]; male, Sprague-Dawley, liver, acetaminophen 100 mg/kg, read-out: Tissue partition coefficient (Kp), Liver): 3 ± 0.8
Kp at 1 h ([1]; male, Sprague-Dawley, liver, control, read-out: Tissue partition coefficient (Kp), Liver): 6.5 ± 5
Kp at 1 h ([1]; male, Sprague-Dawley, muscle, acetaminophen 100 mg/kg, read-out: Tissue partition coefficient (Kp), Muscle): 0.9 ± 0.3
Kp at 1 h ([1]; male, Sprague-Dawley, muscle, control, read-out: Tissue partition coefficient (Kp), Muscle): 0.9 ± 0.2
change of AUCinf after pre-treatment with acetaminophen ([2]; acetaminophen-treated vs control rats): not significantly altered
decrease in Cmax ([2]; after pre-treatment with acetaminophen vs control, p < 0.05): 27.11%
decrease of AUCm/AUCp ([2]; after pretreatment with acetaminophen): 65%
AUC(0-inf) [2, 8]: 3690 ng·h/mL
AUC(0-t) [2, 8]: 3010 ng·h/mL
Cmax [2, 8]: 880 ± 260 ng/mL
MRT [2, 8]: 3.84 h
Tmax [2, 8]: 1.5 h
half-life [2, 8]: 2.38 ± 0.91 h
AUC(0-inf) ([2]; control group): 3690 ng·h/mL
AUC(0-t) ([2]; control group): 3410 ng·h/mL
Cmax ([2]; control group): 1210 ± 240 ng/mL
MRT ([2]; control group): 2.65 h
Tmax ([2]; control group): 1.31 h
half-life ([2]; control group): 1.42 ± 0.36 h
CL renal [2, 8]: 3.58 ± 0.6 mL/min
CL renal ([2]; control group): 2.94 ± 1.55 mL/min
total amount excreted via urine for up to 24 h, difference between groups ([4]; control vs acetaminophen-treated rats): not significantly different
amount excreted into the urine for up to 4 h ([4]; after pre-treatment with acetaminophen): 12.2%
amount excreted into the urine for up to 4 h ([4]; control rats): 49.9%
Structure (SMILES): CC(=O)Nc1cnccc1N [3-N-acetylamifampridine]
pharmacological activity [3]: pharmacologically inactive
dose excreted via the urine within 24 h ([5]; after administration of amifampridine): 74.0–81.7%
elimination half-life [5]: ~4 h

IC50 [7]: 844 ± 160 µM
Structure (SMILES): COc1cc(C(C)=O)ccc1O [apocynin]
IC50 [6]: 690 µM

IC50 [7]: 2450 ± 258 µM
Structure (SMILES): CN/C(=N/CCSCc1nc[nH]c1C)NC#N [cimetidine]
IC50 [6]: 2060 µM
